# Laboratory results from patent publication US20190059368A1, “3,5-DIMETHOXYSTILBENE ANALOGS AND USES THEREOF” (The United States of America, as represented by the …, priority 2017, published 2019).
# Like-named read-outs stand apart in the source and are kept apart here. Marks after values point to notes of the source that are not given here.
# Key:
# Colletotrichum species = test: Direct bioautography, antifungal (overall statement); format: cell-based, Colletotrichum sp.
# Protocol: (§1) The analogs were tested for activity against Colletotrichum acutatum SIMMONDS, C. fragariae BROOKS, and C. gloeosporioides (PENZ) PENZ & SACC. in Penz., using a direct bioautography method as previously described by Tabanca et al. (Nat. Prod. Commun. 2008, 3, 1073) and Wang, et al. (J. Agric. Food Chem. 2013, 61, 4551). Technical grade commercial fungicide standards benomyl, cyprodinil, azoxystrobin, and captan were used at 0.9-1.61 μg/μl concentrations in 95% EtOH. After sample application, each TLC plate was subsequently sprayed with a spore suspension (3.0×10^5 spores/ml) of the fungus of interest and incubated in a moisture chamber for 4 days at 26° C. with a 12 hour photoperiod. Clear zones of fungal growth inhibition on the TLC plate indicated the presence of antifungal constituents in each extract or pure compound. The test compounds were prepared at 2 mM soln. in 95% EtOH, and 4 μl were spotted on the plates (2 μl of the positive controls).
# C. fragariae = test: Direct bioautography, antifungal; format: cell-based, Colletotrichum fragariae; settings: Colletotrichum fragariae; 2 mM; 4 μl spotted (2 μl of the positive controls); average of 2 assays; read-out: zones of inhibition
# Protocol: as §1
# C. gloeosporioides = test: Direct bioautography, antifungal; format: cell-based, Colletotrichum gloeosporioides; settings: Colletotrichum gloeosporioides; 2 mM; 4 μl spotted (2 μl of the positive controls); average of 2 assays; read-out: zones of inhibition
# Protocol: as §1
# Colletotrichum acutatum = test: Direct bioautography, antifungal; format: cell-based; settings: Colletotrichum acutatum; 2 mM; 4 μl spotted (2 μl of the positive controls); average of 2 assays; read-out: zones of inhibition
# Protocol: as §1
# [1] = tested on: methicillin-resistant S. aureus ATCC 33591 (MRSA); test: Antimicrobial microplate assay (modified CLSI); format: cell-based; settings: Staphylococcus aureus
# Protocol: (§2) All organisms were obtained from the American Type Culture Collection (ATCC; Manassas, Va., USA) and included the fungi Cryptococcus neoformans ATCC 90113 and the bacteria Staphylococcus aureus ATCC 29213, methicillin-resistant S. aureus ATCC 33591 (MRSA), and Mycobacterium intracellulare ATCC 23068. All organisms were tested using modified versions of the CLSI (formerly NCCLS) methods. For all organisms excluding My. intracellulare, optical density was used to monitor growth. Medium supplemented with 5% AlamarBlue® (BioSource International, Camarillo, Calif., USA) was utilized for growth detection of My. intracellulare. Samples (dissolved in DMSO) were serially diluted in 20% DMSO/saline and transferred (10 μl) in duplicate to 96-well flat-bottom microplates. Inocula were prepared by correcting the OD630 of microbe suspensions in Sabouraud Dextrose for Cr. neoformans, cation-adjusted Mueller-Hinton (Difco) at pH 7.3 for Staphylococcus spp., and 5% AlamarBlue® (BioSource International) in Middlebrook 7H9 broth with OADC enrichment, pH=7.0 for My. intracellulare, to afford an assay volume of 200 μl and final target inocula of: Cr. neoformans.: b 1.5×10^3, My. intracellulare: 2.0×10^6, and Staphylococcus spp.,: 5.0×10^5 CFU/ml. Final sample test concentrations were 1/100th the DMSO stock concentration. […] All organisms were read at either 530 nm using the Biotek Powerwave XS plate reader (Bio-Tek Instruments, VT) or 544ex1590em (My. intracellulare) using the Polarstar Galaxy Plate Reader (BMG LabTechnologies, Germany) before and after incubation: Staphylococcus spp. at 35° C. for 16-20 h, Cr. neoformans at 35° C. for 70-74 h, and My. intracellulare at 37° C. and 10% CO2 for 70-74 h. IC50 Values (concentrations that afford 50% inhibition relative to controls) werecalculated using XLfit 4.2 software (IDBS, Alameda, Calif.) using fit model 201.
# [2] = tested on: Staphylococcus aureus ATCC 29213; test: Antimicrobial microplate assay (modified CLSI); format: cell-based; settings: ATCC29213, S. aureus
# Protocol: as §2
# [3] = tested on: larvae of ORL and PR strains of Ae. aegypti; format: in vivo; settings: for Percent Mortality: larvae, 24 h
# Protocol: (§3) Further tests were performed on compounds 11 and 12 to determine their effect on larvae and adult mosquitoes. The compounds were tested in the standard bioassays using the Orlando (ORL), pesticide-susceptible strain and the Puerto Rico (PR), pyrethroid-resistant strain of Ae. aegypti. The ORL strain has been in continuous colony since 1952 with no pesticide exposure while the resistant PR strain was colonized from egg papers collected near San Juan, PR in June, 2012. The PR strain is available as a resistant reference strain through BEIResources/CDC. Mortality was determined in the larval assays at four different concentrations (1, 0.5, 0.25, and 0.1 μg/μl) and three concentrations for adults (6.25%, 3.125%, and 1.56%). Mortality was recorded 24 h post-application, and in all assays, a negative solvent and a positive control using permethrin were utilized; tests were done in triplicate. Assays were conducted according to published procedures as described in Wanner, J. et al. (Curr. Bioact. Compd. 2015, 11, 13).
# [4] = tested on: adults of ORL and PR strains of Ae. aegypti; test: Adult mosquito assay, ORL and PR strains; format: in vivo; settings: both strains
# Protocol: as §3
# Ae. aegypti larvae = test: Larvicidal bioassay against 1-day-old Ae. aegypti larvae (screening and dose-response); format: in vivo, Aedes aegypti
# Protocol: Analogs were screened for activity against Ae. aegypti larvae following a bioassay system described in Ali, A., et al. (J. Med. Entomol. 2014, 51, 824). Ae. aegypti larvae used in these studies were from a laboratory colony maintained at the Mosquito and Fly Research Unit at the Center for Medical, Agricultural and Veterinary Entomology, USDA-ARS, Gainesville, Fla. For larval bioassays, the eggs were hatched and the larvae were maintained at a temperature of 27±2° C. and 60±10% RH with a photoperiod regimen of 12:12 hour (Light:Dark). Five 1-day-old Ae. aegypti larvae were added into a droplet of H2O to each well of 24-well plates (BD Labware, Franklin Lakes, N.J., USA) by use of a disposable 22.5-cm Pasteur pipette. A quantity of 50 μl of larval diet (2% slurry of 3:2 beef liver powder (Now Foods, Bloomingdale, Ill., USA) and Brewer's yeast (Lewis Laboratories Ltd., Westport, Conn., USA) was added to each well using a Finnpipette stepper (Thermo Fisher, Vantaa, Finland). All chemicals tested were diluted in DMSO. A quantity of 11 μl of the test chemical was added to the labeled wells, while 11 μl of DMSO was added to control treatments. After the treatment application, the plates were swirled in clockwise and counterclockwise motions and front and back and side to side five times to ensure even mixing of the chemicals. Larval mortality was recorded 24 hours post-treatment. […] Three dosages, 100, 50, and 25 ppm, were used in the screening bioassay to determine the larvicidal activity and each treatment was replicated twice. […] Each treatment was replicated ten times. LC50 Values for larvicidal data were calculated using SAS, Proc Probit. Control mortality was corrected using the Abbott's formula.
# [5] = tested on: Mycobacterium intracellulare ATCC 23068; test: Antimicrobial microplate assay (modified CLSI, AlamarBlue); format: cell-based; settings: ATCC23068, My. intracellulare
# Protocol: as §2
# [6] = tested on: Cryptococcus neoformans ATCC 90113; test: Antimicrobial microplate assay (modified CLSI); format: cell-based; settings: Cryptococcus neoformans, ATCC90113; Cr. neoformans
# Protocol: All organisms were obtained from the American Type Culture Collection (ATCC; Manassas, Va., USA) and included the fungi Cryptococcus neoformans ATCC 90113 and the bacteria Staphylococcus aureus ATCC 29213, methicillin-resistant S. aureus ATCC 33591 (MRSA), and Mycobacterium intracellulare ATCC 23068. All organisms were tested using modified versions of the CLSI (formerly NCCLS) methods. For all organisms excluding My. intracellulare, optical density was used to monitor growth. Medium supplemented with 5% AlamarBlue® (BioSource International, Camarillo, Calif., USA) was utilized for growth detection of My. intracellulare. Samples (dissolved in DMSO) were serially diluted in 20% DMSO/saline and transferred (10 μl) in duplicate to 96-well flat-bottom microplates. Inocula were prepared by correcting the OD630 of microbe suspensions in Sabouraud Dextrose for Cr. neoformans, cation-adjusted Mueller-Hinton (Difco) at pH 7.3 for Staphylococcus spp., and 5% AlamarBlue® (BioSource International) in Middlebrook 7H9 broth with OADC enrichment, pH=7.0 for My. intracellulare, to afford an assay volume of 200 μl and final target inocula of: Cr. neoformans.: b 1.5×10^3, My. intracellulare: 2.0×10^6, and Staphylococcus spp.,: 5.0×10^5 CFU/ml. Final sample test concentrations were 1/100th the DMSO stock concentration. Drug controls (Ciprofloxacin (ICN Biomedicals, Ohio, USA) for bacteria and Amphotericin B (ICN Biomedicals) for fungi) were included in each assay. All organisms were read at either 530 nm using the Biotek Powerwave XS plate reader (Bio-Tek Instruments, VT) or 544ex1590em (My. intracellulare) using the Polarstar Galaxy Plate Reader (BMG LabTechnologies, Germany) before and after incubation: Staphylococcus spp. at 35° C. for 16-20 h, Cr. neoformans at 35° C. for 70-74 h, and My. intracellulare at 37° C. and 10% CO2 for 70-74 h. IC50 Values (concentrations that afford 50% inhibition relative to controls) werecalculated using XLfit 4.2 software (IDBS, Alameda, Calif.) using fit model 201.
# [7] = 1-day-old larvae, mortality 24 hours post-treatment
structure (smiles),measurement,setting,value
"COc1cc(/C=C/c2ccccc2)cc(OC)c1C [Compound 6a, (E)-1,3-dimethoxy-2-methyl-5-styrylbenzene]",inhibitory effect on Colletotrichum species (in words),Colletotrichum species,strong inhibitory effect
same,zone of inhibition at 2000 µM,C. fragariae,5 mm
same,zone of inhibition at 2000 µM,C. gloeosporioides,5.5 mm
same,zone of inhibition at 2000 µM,Colletotrichum acutatum,5 mm
"COc1cc(/C=C\c2ccccc2)cc(OC)c1C [Compound 7a, (Z)-1,3-dimethoxy-2-methyl-5-styrylbenzene]",inhibitory effect on Colletotrichum species (in words),Colletotrichum species,strong inhibitory effect
same,zone of inhibition at 2000 µM,C. fragariae,6.5 mm
same,zone of inhibition at 2000 µM,C. gloeosporioides,7 mm
same,zone of inhibition at 2000 µM,Colletotrichum acutatum,8 mm
"COc1cc(/C=C\c2ccc(F)cc2)cc(OC)c1C [Compound 7e, (Z)-1,3-dimethoxy-5-(4-fluorostyryl)-2-methylbenzene]",inhibitory effect on Colletotrichum species (in words),Colletotrichum species,strong inhibitory effect
same,zone of inhibition at 2000 µM,C. fragariae,6 mm
same,zone of inhibition at 2000 µM,C. gloeosporioides,6 mm
same,zone of inhibition at 2000 µM,Colletotrichum acutatum,6 mm
"COc1cc(/C=C\c2ccc(O)c(CC=C(C)C)c2)cc(OC)c1 [Compound 12, (Z)-4-(3,5-dimethoxystyryl)-2-(3-methylbut-2-en-1-yl)phenol]",IC50,[1],13 µM
same,MIC,[1],30.8 µM
same,IC50,[2],17 µM
same,MIC,[2],30.8 µM
same,effectiveness against larvae (in words),[3]; ORL and PR strains,highly effective
same,Percent Mortality,"[3]; ORL strain, 0.1 μg/μl",66.7 ± 23.1%
same,Percent Mortality,"[3]; ORL strain, 0.25 μg/μl",93.3 ± 11.5%
same,Percent Mortality,"[3]; ORL strain, 0.5 μg/μl",93.3 ± 11.5%
same,Percent Mortality,"[3]; ORL strain, 1.0 μg/μl",93.3 ± 11.5%
same,Percent Mortality,"[3]; PR strain, 0.1 μg/μl",73.3 ± 11.5%
same,Percent Mortality,"[3]; PR strain, 0.25 μg/μl",73.3 ± 11.5%
same,Percent Mortality,"[3]; PR strain, 0.5 μg/μl",93.3 ± 11.5%
same,Percent Mortality,"[3]; PR strain, 1.0 μg/μl",93.3 ± 11.5%
same,effectiveness against adult mosquitoes (in words),[4],somewhat effective
same,LC50 (LD50 converted to μM),"Ae. aegypti larvae; 1-day-old larvae, 24 hours",49.93 µM
same,LD50 (95% CI),Ae. aegypti larvae; [7],16.2^b ppm
same,LD90 (95% CI),Ae. aegypti larvae; [7],37.9 ppm
same,larvicidal activity (in words),"Ae. aegypti larvae; screening at 100, 50 and 25 ppm",high larvicidal activity
same,IC50,[5],50.4 µM
same,MIC,[5],61.7 µM
same,IC50,[6],41.8 µM
same,MIC,[6],61.7 µM
